#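 Tested at 5 concentrations; 48 h exposure; 96-well plates; endpoints linearly interpolated, else capped at highest concentration. GI50 = concentration required for 50% inhibition of growth. TGI marks complete inhibition of growth.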
# Assays:
# Test in all cases: NCI-60 cell line screen, 48 h
# HOP-92 NSCLC = system: HOP-92 NSCLC
# SK-MEL-5 melanoma = system: SK-MEL-5 melanoma
# OVCAR-3 ovarian = system: OVCAR-3 ovarian
# SF-295 CNS = system: SF-295 CNS
# NCI-H460 lung = system: NCI-H460 lung
# EKVX NSCLC = system: EKVX NSCLC
# CAKI-1 renal = system: CAKI-1 renal
# MOLT-4 leukemia = system: MOLT-4 leukemia
# MDA-MB-231 breast = system: MDA-MB-231 breast
# U251 CNS = system: U251 CNS
# OVCAR-5 ovarian = system: OVCAR-5 ovarian
# MALME-3M melanoma = system: MALME-3M melanoma
# IGROV1 ovarian = system: IGROV1 ovarian
# 786-0 renal = system: 786-0 renal
# LOX IMVI melanoma = system: LOX IMVI melanoma
# SK-OV-3 ovarian = system: SK-OV-3 ovarian
# NCI-H522 lung = system: NCI-H522 lung
# SK-MEL-28 melanoma = system: SK-MEL-28 melanoma
# UACC-257 melanoma = system: UACC-257 melanoma
# HCT-116 colon = system: HCT-116 colon
# NCI/ADR-RES ovarian = system: NCI/ADR-RES ovarian
# OVCAR-4 ovarian = system: OVCAR-4 ovarian
# HCT-15 colon = system: HCT-15 colon
# RXF 393 renal = system: RXF 393 renal
# RPMI-8226 leukemia = system: RPMI-8226 leukemia
# TK-10 renal = system: TK-10 renal
# T-47D breast = system: T-47D breast
# DU-145 prostate = system: DU-145 prostate
# A498 renal = system: A498 renal
# ACHN renal = system: ACHN renal
# NCI-H23 lung = system: NCI-H23 lung
# SF-268 CNS = system: SF-268 CNS
# NCI-H226 lung = system: NCI-H226 lung
# MDA-MB-435 = system: MDA-MB-435
# SNB-75 CNS = system: SNB-75 CNS
# HT29 colon = system: HT29 colon
# BT-549 breast = system: BT-549 breast
# SF-539 CNS = system: SF-539 CNS
# SN12C renal = system: SN12C renal
# HOP-62 NSCLC = system: HOP-62 NSCLC
# COLO 205 colon = system: COLO 205 colon
# KM12 colon = system: KM12 colon
# OVCAR-8 ovarian = system: OVCAR-8 ovarian
# SW-620 colon = system: SW-620 colon
# UACC-62 melanoma = system: UACC-62 melanoma
# UO-31 renal = system: UO-31 renal
# K-562 leukemia = system: K-562 leukemia
# HL-60(TB) leukemia = system: HL-60(TB) leukemia
# PC-3 prostate = system: PC-3 prostate
# MCF7 breast = system: MCF7 breast
# SR leukemia = system: SR leukemia
# M14 melanoma = system: M14 melanoma
# SNB-19 CNS = system: SNB-19 CNS
# HS 578T breast = system: HS 578T breast
# A549 NSCLC = system: A549 NSCLC
# HCC-2998 colon = system: HCC-2998 colon
# SK-MEL-2 melanoma = system: SK-MEL-2 melanoma
# CCRF-CEM leukemia = system: CCRF-CEM leukemia
smiles,measurement,setting,value
N#CC(C(=O)c1ccccc1F)c1nc2cc(C(F)(F)F)ccc2s1 (centres undefined),TGI,HOP-92 NSCLC,56.2 µM
same,TGI,SK-MEL-5 melanoma,52.3 µM
same,TGI,OVCAR-3 ovarian,52.7 µM
same,TGI,SF-295 CNS,73.4 µM
same,TGI,NCI-H460 lung,> 100 µM
same,TGI,EKVX NSCLC,81.6 µM
same,TGI,CAKI-1 renal,> 100 µM
same,TGI,MOLT-4 leukemia,> 100 µM
same,TGI,MDA-MB-231 breast,> 100 µM
same,TGI,U251 CNS,> 100 µM
same,TGI,OVCAR-5 ovarian,89.6 µM
same,TGI,MALME-3M melanoma,69.3 µM
same,TGI,IGROV1 ovarian,> 100 µM
same,TGI,786-0 renal,60.5 µM
same,TGI,LOX IMVI melanoma,36.7 µM
same,TGI,SK-OV-3 ovarian,> 100 µM
same,TGI,NCI-H522 lung,40.5 µM
same,TGI,SK-MEL-28 melanoma,> 100 µM
same,TGI,UACC-257 melanoma,> 100 µM
same,TGI,HCT-116 colon,41.9 µM
same,TGI,NCI/ADR-RES ovarian,> 100 µM
same,TGI,OVCAR-4 ovarian,> 100 µM
same,TGI,HCT-15 colon,56.7 µM
same,TGI,RXF 393 renal,> 100 µM
same,TGI,RPMI-8226 leukemia,85 µM
same,TGI,TK-10 renal,> 100 µM
same,TGI,T-47D breast,> 100 µM
same,TGI,DU-145 prostate,> 100 µM
same,TGI,A498 renal,45.8 µM
same,TGI,ACHN renal,94.6 µM
same,TGI,NCI-H23 lung,53.9 µM
same,TGI,SF-268 CNS,> 100 µM
same,TGI,NCI-H226 lung,> 100 µM
same,TGI,MDA-MB-435,> 100 µM
same,TGI,SNB-75 CNS,> 100 µM
same,TGI,HT29 colon,53.2 µM
same,TGI,BT-549 breast,69.4 µM
same,TGI,SF-539 CNS,78.5 µM
same,TGI,SN12C renal,67.2 µM
same,TGI,HOP-62 NSCLC,63.1 µM
same,TGI,COLO 205 colon,49.5 µM
same,TGI,KM12 colon,> 100 µM
same,TGI,OVCAR-8 ovarian,> 100 µM
same,TGI,SW-620 colon,82.4 µM
CCCCCCCCSC1=CC(=O)C(OC)=C(OC)C1=O,GI50,SK-MEL-5 melanoma,1.6 µM
same,TGI,SK-MEL-5 melanoma,8.79 µM
same,GI50,OVCAR-3 ovarian,1.45 µM
same,TGI,OVCAR-3 ovarian,2.85 µM
same,GI50,UACC-62 melanoma,3.5 µM
same,TGI,UACC-62 melanoma,13.9 µM
same,GI50,SF-295 CNS,6.75 µM
same,TGI,SF-295 CNS,31.4 µM
same,GI50,NCI-H460 lung,6.29 µM
same,TGI,NCI-H460 lung,19.8 µM
same,GI50,EKVX NSCLC,10.1 µM
same,TGI,EKVX NSCLC,24.8 µM
same,GI50,CAKI-1 renal,6.11 µM
same,TGI,CAKI-1 renal,54.6 µM
same,GI50,MOLT-4 leukemia,1.87 µM
same,TGI,MOLT-4 leukemia,> 100 µM
same,GI50,MDA-MB-231 breast,3.5 µM
same,TGI,MDA-MB-231 breast,8.16 µM
same,GI50,UO-31 renal,1.77 µM
same,TGI,UO-31 renal,3.31 µM
same,GI50,K-562 leukemia,2.73 µM
same,TGI,K-562 leukemia,> 100 µM
same,GI50,U251 CNS,2.8 µM
same,TGI,U251 CNS,11.7 µM
same,GI50,OVCAR-5 ovarian,4.25 µM
same,TGI,OVCAR-5 ovarian,16.7 µM
same,GI50,HL-60(TB) leukemia,0.437 µM
same,TGI,HL-60(TB) leukemia,21.4 µM
same,GI50,MALME-3M melanoma,1.96 µM
same,TGI,MALME-3M melanoma,4.44 µM
same,GI50,PC-3 prostate,6.24 µM
same,TGI,PC-3 prostate,23.3 µM
same,GI50,IGROV1 ovarian,5.66 µM
same,TGI,IGROV1 ovarian,23.4 µM
same,GI50,MCF7 breast,1.91 µM
same,TGI,MCF7 breast,14.1 µM
same,GI50,786-0 renal,7.86 µM
same,TGI,786-0 renal,20.1 µM
same,GI50,LOX IMVI melanoma,0.767 µM
same,TGI,LOX IMVI melanoma,2.11 µM
same,GI50,SK-OV-3 ovarian,17.6 µM
same,TGI,SK-OV-3 ovarian,36.4 µM
same,GI50,NCI-H522 lung,0.326 µM
same,TGI,NCI-H522 lung,1.49 µM
same,GI50,SK-MEL-28 melanoma,6.7 µM
same,TGI,SK-MEL-28 melanoma,20.3 µM
same,GI50,UACC-257 melanoma,1.67 µM
same,TGI,UACC-257 melanoma,4.17 µM
same,GI50,HCT-116 colon,1.19 µM
same,TGI,HCT-116 colon,2.54 µM
same,GI50,NCI/ADR-RES ovarian,2.49 µM
same,TGI,NCI/ADR-RES ovarian,7.1 µM
same,GI50,OVCAR-4 ovarian,1.27 µM
same,TGI,OVCAR-4 ovarian,3.14 µM
same,GI50,HCT-15 colon,2.27 µM
same,TGI,HCT-15 colon,8.58 µM
same,GI50,RXF 393 renal,1.61 µM
same,TGI,RXF 393 renal,3.46 µM
same,GI50,RPMI-8226 leukemia,1.27 µM
same,TGI,RPMI-8226 leukemia,> 100 µM
same,GI50,TK-10 renal,2.06 µM
same,TGI,TK-10 renal,3.95 µM
same,GI50,SR leukemia,2.27 µM
same,TGI,SR leukemia,> 100 µM
same,GI50,DU-145 prostate,7.23 µM
same,TGI,DU-145 prostate,20.5 µM
same,GI50,M14 melanoma,2.06 µM
same,TGI,M14 melanoma,9.86 µM
same,GI50,A498 renal,6.13 µM
same,TGI,A498 renal,20.4 µM
same,GI50,ACHN renal,1.58 µM
same,TGI,ACHN renal,2.98 µM
same,GI50,NCI-H23 lung,3.36 µM
same,TGI,NCI-H23 lung,16.2 µM
same,GI50,SF-268 CNS,3.75 µM
same,TGI,SF-268 CNS,14.7 µM
same,GI50,SNB-19 CNS,13.7 µM
same,TGI,SNB-19 CNS,27.3 µM
same,GI50,NCI-H226 lung,5.4 µM
same,TGI,NCI-H226 lung,27.5 µM
same,GI50,MDA-MB-435,1.88 µM
same,TGI,MDA-MB-435,7.57 µM
same,GI50,SNB-75 CNS,2.21 µM
same,TGI,SNB-75 CNS,16.7 µM
same,GI50,HS 578T breast,2.64 µM
same,TGI,HS 578T breast,9.85 µM
same,GI50,HT29 colon,3.75 µM
same,TGI,HT29 colon,12.6 µM
same,GI50,BT-549 breast,7 µM
same,TGI,BT-549 breast,19.4 µM
same,GI50,A549 NSCLC,5.49 µM
same,TGI,A549 NSCLC,18.5 µM
same,GI50,SF-539 CNS,2.54 µM
same,TGI,SF-539 CNS,5.9 µM
same,GI50,SN12C renal,5.21 µM
same,TGI,SN12C renal,18.4 µM
same,GI50,HCC-2998 colon,11.3 µM
same,TGI,HCC-2998 colon,24.4 µM
same,GI50,HOP-62 NSCLC,11.1 µM
same,TGI,HOP-62 NSCLC,24.4 µM
same,GI50,SK-MEL-2 melanoma,4.3 µM
same,TGI,SK-MEL-2 melanoma,13.7 µM
same,GI50,COLO 205 colon,4.17 µM
same,TGI,COLO 205 colon,14.6 µM
same,GI50,KM12 colon,3.43 µM
same,TGI,KM12 colon,13.7 µM
same,GI50,OVCAR-8 ovarian,2.16 µM
same,TGI,OVCAR-8 ovarian,5.16 µM
same,GI50,SW-620 colon,1.71 µM
same,TGI,SW-620 colon,3.37 µM
CCOC(=O)Cc1csc(/N=C\c2c(O)c3ccccc3oc2=O)n1,TGI,HOP-92 NSCLC,47.3 µM
same,TGI,SK-MEL-5 melanoma,52.6 µM
same,TGI,OVCAR-3 ovarian,77.1 µM
same,TGI,UACC-62 melanoma,> 100 µM
same,TGI,SF-295 CNS,68.2 µM
same,TGI,NCI-H460 lung,> 100 µM
same,TGI,EKVX NSCLC,> 100 µM
same,TGI,CAKI-1 renal,> 100 µM
same,TGI,MOLT-4 leukemia,42.7 µM
same,TGI,UO-31 renal,> 100 µM
same,TGI,U251 CNS,> 100 µM
same,TGI,OVCAR-5 ovarian,> 100 µM
same,TGI,HL-60(TB) leukemia,7.43 µM
same,TGI,MALME-3M melanoma,24.3 µM
same,TGI,PC-3 prostate,> 100 µM
same,TGI,IGROV1 ovarian,> 100 µM
same,TGI,MCF7 breast,> 100 µM
same,TGI,786-0 renal,> 100 µM
same,TGI,LOX IMVI melanoma,> 100 µM
same,TGI,SK-OV-3 ovarian,> 100 µM
same,TGI,NCI-H522 lung,42.4 µM
same,TGI,SK-MEL-28 melanoma,> 100 µM
same,TGI,UACC-257 melanoma,74.5 µM
same,TGI,HCT-116 colon,> 100 µM
same,TGI,NCI/ADR-RES ovarian,64 µM
same,TGI,OVCAR-4 ovarian,> 100 µM
same,TGI,HCT-15 colon,> 100 µM
same,TGI,RXF 393 renal,> 100 µM
same,TGI,CCRF-CEM leukemia,85.9 µM
same,TGI,RPMI-8226 leukemia,51.6 µM
same,TGI,TK-10 renal,> 100 µM
same,TGI,SR leukemia,52 µM
same,TGI,M14 melanoma,> 100 µM
same,TGI,ACHN renal,> 100 µM
same,TGI,NCI-H23 lung,94.4 µM
same,TGI,SF-268 CNS,> 100 µM
same,TGI,SNB-19 CNS,> 100 µM
same,TGI,NCI-H226 lung,97.8 µM
same,TGI,MDA-MB-435,85.4 µM
same,TGI,SNB-75 CNS,56.7 µM
same,TGI,HS 578T breast,> 100 µM
same,TGI,HT29 colon,> 100 µM
same,TGI,A549 NSCLC,> 100 µM
same,TGI,SF-539 CNS,56.7 µM
same,TGI,HOP-62 NSCLC,75.9 µM
same,TGI,SK-MEL-2 melanoma,40.4 µM
same,TGI,COLO 205 colon,> 100 µM
same,TGI,KM12 colon,> 100 µM
same,TGI,OVCAR-8 ovarian,> 100 µM
same,TGI,SW-620 colon,> 100 µM

# Reference: PubChem BioAssay (NCI)
